Measurements taken from US8680126B2, “Fluorinated thiazoles for use in treating cancer” (Universitat de Barcelona, priority 2010, dated 2014).

Columns and labels:
[1] = tested on: Jurkat cells (T lymphocytes from acute T cell leukemia with mutated TP53); experiment: Dose-response analysis of apoptosis by flow cytometry in Jurkat cells; type: cell-based; conditions: Homo sapiens, 24 hours, flow cytometry (annexin-V negative cells in respect to untreated cells)
Experimental: (§1) The human cell lines Jurkat (T lymphocytes from acute T cell leukemia), Ramos (B lymphocytes from Burkitt's lymphoma), TK6 (human lymphoblast cell line) HeLa (epithelial cervical carcinoma cell line), MDA-MB 231 (epithelial breast adenocarcinoma cell line), T98-G (glioblastoma cell line) and Hep3B (hepatocellular carcinoma cell line) were obtained from the European Collection of Cell Cultures.
(§2) Jurkat, Ramos, TK6 and CLL cells were grown in RPMI-1640 medium, and HeLa cells in DMEM medium, both containing 10% heat-inactivated fetal calf serum, 1% glutamine, and 1% penicillin-streptomycin. MDA-MB 231 cells were grown in DMEM/F-12 medium containing additionally 1% pyruvate. Hep3B cells were maintained in MEM medium supplemented with 10% fetal bovine serum. All were maintained at 37° C. in humidified atmosphere containing 5% carbon dioxide.
(§3) 0.25-0.3×10^6 cells were washed in phosphate-buffered saline (PBS) and resuspended in 100 μl of annexin binding buffer and incubated with 1 μl of annexin V-Fluorescein-5-isothiocyanate (FITC) or annexin V-Allophycocyanin (APC). After 20 min of incubation in the dark at room temperature, 100 μl of annexin binding buffer with 5 μl of propidium iodide (PI) (20 μg/ml) was added just before flow cytometric analysis. Data were analyzed using the appropriate software. Cell viability was measured by analysis of phosphatidylserine exposure and PI uptake and it is expressed as the percentage of annexin-V and PI double-negative cells.
(§4) Dose-response analysis was performed using Jurkat mutated-TP53 cancer cells and inactivated p53 cancer cell line HeLa.
(§5) Cell viability was measured by flow cytometry and it is expressed as the percentage of nonapoptotic cells (annexin-V negative) in respect to untreated cells at 24 hours. Therefore, values under 100% are indicative of apoptosis or loss of cell viability.
Jurkat cells (which are T lymphocytes from acute T cell leukemia with mutated TP53) were incubated with a range of doses from 1 to 40 μM of each compound for 24 hours.
(§6) The IC50 at 24 hours was calculated for each compound using flow cytometry analysis. The results are expressed in Table 3 as the percentage of nonapoptotic cells (annexin-V negative) in respect to untreated cells at 24 hours.
Jurkat cells (which are T lymphocytes from acute T cell leukemia with mutated TP53) were incubated with a range of doses from 5 to 40 μM of each compound for 24 hours.

[2] = tested on: HeLa cells (epithelial cervical carcinoma cell line with inactivated p53); experiment: Dose-response analysis of apoptosis by flow cytometry in HeLa cells; type: cell-based; conditions: Homo sapiens, 24 hours, flow cytometry (annexin-V negative cells in respect to untreated cells)
Experimental: as §1, §2, §3, §4, §5
HeLa cells (epithelial cervical carcinoma cell line with inactivated p53) were incubated with a range of doses from 2 to 40 μM of each compound for 24 hours.
as §6
HeLa cells (epithelial cervical carcinoma cell line with inactivated p53) were incubated with a range of doses from 5 to 40 μM of each compound for 24 hours.

[3] = tested on: Jurkat cell line (T lymphocytes from acute T cell leukemia, mutated TP53); experiment: Screening assay in Jurkat cells by measuring cell viability (flow cytometry), single dose; type: cell-based, human; parameters: key: “+” means low activity; “++” means good activity; “+++” means very good activity; “−” means no activity; conditions: single dose of 40 μM, 24 hour-incubation
Experimental: as §1, §2, §3
A screening of the effect of compounds Ia-If was performed in Jurkat cell line (T lymphocytes form acute T cell leukemia) at a single dose of 40 μM for 24 hour-incubation.
Jurkat cells were selected among other leukemic tumor cell lines because they have the protein TP53 mutated.
Every compound mentioned above was dissolved in the minimum amount of DMSO necessary to be dissolved. Cell viability was measured by flow cytometry analysis. […] Thus, all the observed effects on cell viability are due to the compounds' activity.
The results are summarized in Table 2: “+” means low activity; “++” means good activity and “+++” means very good activity; “−” means no activity.

[4] = tested on: TK6 cells (human lymphoblast cell line with wild-type TP53); experiment: Dose-response analysis of apoptosis by flow cytometry in TK6 cells; type: cell-based; conditions: 24 hours; for IC50: Homo sapiens, TK6, flow cytometry; for induction of apoptosis (dose-response): TK6, doses from 2 to 40 μM
Experimental: as §1, §2, §3
TK6 cells (human lymphoblast cell line with wild-type TP53) were incubated with a range of doses from 2 to 40 μM of compounds Ia and Id for 24 hours.
(§7) The IC50 of compounds Ia and Id was calculated at 24 hours by flow cytometry analysis, except for Hep3B where crystal violet assay was used. The results are expressed in Table 4 as the percentage of viable cells in respect to untreated cells at 24 hours.

[5] = tested on: B-CLL cells from patients with wild-type TP53; experiment: Dose-response analysis of apoptosis by flow cytometry in B-CLL cells, wild-type TP53; type: cell-based, human; conditions: 24 hours; for induction of apoptosis (dose-response): B-CLL cells wild-type TP53, doses from 1 to 20 μM
Experimental: as §2
(§8) Peripheral blood lymphocytes from CLL patients were obtained from the Haematology Unit at the IDIBELL-Hospital de Bellvitge, L'Hospitalet de Llobregat, Barcelona, Spain. CLL was diagnosed according to standard clinical and laboratory criteria. Written informed consent was obtained from all patients, in accordance with the Hospital de Bellvitge's Ethical Committee. Mononuclear cells from heparinized peripheral blood samples were isolated by centrifugation on a Ficoll-Hypaque (Seromed, Berlin, Germany) gradient. The purity of CLL samples was evaluated with allophycocyanin (APC)-conjugated anti-CD3 and phycoerythrin (PE)-conjugated anti-CD19 (Becton Dickinson, Frankiln Lakes, N.J., USA). Data were analysed by flow cytometry and the analysis was performed with the appropriate software.
as §3
B-CLL cells from patients with wild-type TP53 were incubated with a range of doses from 1 to 20 μM of compounds Ia and Id for 24 hours. […]

[6] = tested on: T98-G cells (glioblastoma cell line with mutated TP53); experiment: Dose-response analysis of apoptosis by flow cytometry in T98-G cells; type: cell-based, human; conditions: 24 hours; for IC50: Homo sapiens, T98G, flow cytometry; for induction of apoptosis (dose-response): T98-G, doses from 2 to 60 μM
Experimental: as §1, §3
T98-G cells (glioblastoma cell line with mutated TP53) were incubated with a range of doses from 2 to 60 μM of compounds Ia and Id for 24 hours.
as §7

[7] = tested on: B-CLL cells from patients with mutated TP53; experiment: Dose-response analysis of apoptosis by flow cytometry in B-CLL cells, mutated TP53; type: cell-based, human; conditions: B-CLL cells mutated TP53, doses from 1 to 20 μM, 24 hours
Experimental: as §2
as §8, with “Mononuclear cells from heparinized peripheral blood samples were isolated by centrifugation on a Ficoll-Hypaque (Seromed, Berlin, Germany) gradient.” left out
(§9) 0.25-0.3×10^6 cells were washed in phosphate-buffered saline (PBS) and resuspended in 100 μl of annexin binding buffer and incubated with 1 μl of annexin V-Fluorescein-5-isothiocyanate (FITC) or annexin V-Allophycocyanin (APC). […] Data were analyzed using the appropriate software. […]

[8] = tested on: MDA-MB-231 cells (epithelial breast adenocarcinoma cell line with mutated TP53); experiment: Dose-response analysis of apoptosis by flow cytometry in MDA-MB-231 cells; type: cell-based, human; conditions: 24 hours; for IC50: Homo sapiens, MDA-MB-231, flow cytometry; for induction of apoptosis (dose-response): MDA-MB-231, doses from 2 to 60 μM
Experimental: as §1, §2, §3
MDA-MB-231 cells (epithelial breast adenocarcinoma cell line with mutated TP53) were incubated with a range of doses from 2 to 60 μM of compounds Ia and Id for 24 hours.
as §7

[9] = tested on: Hep3B cells (hepatocellular carcinoma cell line with deleted TP53); experiment: Cell viability by crystal violet assay in Hep3B cells; type: cell-based, human; conditions: 24 hours; for IC50: Homo sapiens, crystal violet assay; for loss of cell viability (dose-response): doses from 2 to 40 μM, crystal violet
Experimental: as §1, §2
This method allows quantifying the amount of cells that survive after a toxic process, and it consists on cell staining with a colorant, crystal violet. This method is only useful when working with adherent cells that detached after undergoing a toxic process.
After the cells were incubated, in 12 or 24-well plates, with the different stimuli or inhibitors, the cell media was removed, and cells were washed twice with PBS. Then, a solution of Crystal violet at 0.2% (w/v) in 2% ethanol was added during 30 minutes. Following this, the staining solution was removed, and the wells were washed several times with PBS or distilled water until the excess staining that was not incorporated into the cells was eliminated. The plate was air-dried, and the stained cells were lysed in 10% SDS. By spectrophotometric analysis, the absorbance was measured at 595 nm.
The results were then calculated as the percentage of viable cells relative to control cells (cells incubated in the absence of treatment) at the indicated times.
Hep3B cells (hepatocellular carcinoma cell line with deleted TP53) were incubated with a range of doses from 2 to 40 μM of compounds Ia and Id for 24 hours.
as §7

[10] = tested on: Ramos cells (B lymphocytes from Burkitt's lymphoma with mutated TP53); experiment: Dose-response analysis of apoptosis by flow cytometry in Ramos cells; type: cell-based, human; conditions: 24 hours; for IC50: Homo sapiens, flow cytometry; for induction of apoptosis (dose-response): doses from 2 to 40 μM
Experimental: as §1, §2, §3
Ramos cells (B lymphocytes from Burkitt's lymphoma with mutated TP53) were incubated with a range of doses from 2 to 40 μM of compounds Ia and Id for 24 hours.
as §7

[11] = tested on: B-CLL cells; experiment: IC50 by flow cytometry in primary B-CLL cells; type: cell-based; conditions: Homo sapiens, 24 hours
Experimental: as §2
Peripheral blood lymphocytes from CLL patients were obtained from the Haematology Unit at the IDIBELL-Hospital de Bellvitge, L'Hospitalet de Llobregat, Barcelona, Spain. CLL was diagnosed according to standard clinical and laboratory criteria. […] The purity of CLL samples was evaluated with allophycocyanin (APC)-conjugated anti-CD3 and phycoerythrin (PE)-conjugated anti-CD19 (Becton Dickinson, Frankiln Lakes, N.J., USA). Data were analysed by flow cytometry and the analysis was performed with the appropriate software.
as §9
The IC50 of compounds Ia and Id was calculated at 24 hours by flow cytometry analysis, except for Hep3B where crystal violet assay was used. […]

[12] = tested on: T cells (CLL cells from patients with wild-type TP53); experiment: Dose-response analysis by flow cytometry in T cells of CLL patients, wild-type TP53; type: cell-based, human; conditions: doses from 5 to 40 μM, 24 hours
Experimental: Viability was measured by flow cytometry and it is expressed as the percentage of nonapoptotic cells (annexin-V FITC negative). A representative patient is shown.
as §2
Peripheral blood lymphocytes from CLL patients were obtained from the Haematology Unit at the IDIBELL-Hospital de Bellvitge, L'Hospitalet de Llobregat, Barcelona, Spain. […] The purity of CLL samples was evaluated with allophycocyanin (APC)-conjugated anti-CD3 and phycoerythrin (PE)-conjugated anti-CD19 (Becton Dickinson, Frankiln Lakes, N.J., USA). Data were analysed by flow cytometry and the analysis was performed with the appropriate software.
as §9

Compound | IC50 [1] [µM] | IC50 [2] [µM] | Biological activity [3] | IC50 [4] [µM] | induction of apoptosis (dose-response) [4] | induction of apoptosis (dose-response) [5] | IC50 [6] [µM] | induction of apoptosis (dose-response) [6] | induction of apoptosis (dose-response) [7] | IC50 [8] [µM] | induction of apoptosis (dose-response) [8] | IC50 [9] [µM] | loss of cell viability (dose-response) [9] | IC50 [10] [µM] | induction of apoptosis (dose-response) [10] | IC50 [11] [µM] | induction of apoptosis (dose-response) in B cells ([5]; CLL cells wild-type TP53, B cells, doses from 5 to 40 μM) | sensitivity of T cells compared with B cells [12]
FC1(F)N=C(c2ccc(-c3ccccc3)cc2)SC1(F)c1ccccc1 (centres unmarked) [Ie, 4,4,5-trifluoro-2-(biphenyl-4-yl)-5-phenyl-4,5-dihydrothiazole] | 20 | 3.5 | + |  |  |  |  |  |  |  |  |  |  |  |  |  |  | 
Clc1ccc(-c2cnc(-c3ccc(Cl)cc3)s2)cc1 [comparative Ad, 2,5-bis(4-chlorophenyl)thiazole, reference compound] |  |  | − |  |  |  |  |  |  |  |  |  |  |  |  |  |  | 
Fc1nc(C2=NC(F)(F)C(F)(c3ccccc3)S2)sc1-c1ccccc1 (centres unmarked) [Ia, 4-fluoro-5-phenyl-2-(4,4,5-trifluoro-5-phenyl-4,5-dihydrothiazol-2-yl)thiazole] | 4 | 20 | +++ | 8 | induced apoptosis in a dose-dependent manner | induced apoptosis in a dose-dependent manner | 50 | induced apoptosis in a dose-dependent manner | induced apoptosis in a dose-dependent manner | 16 | induced apoptosis in a dose-dependent manner | 14 | induced a loss on cell viability in a dose-dependent manner | 4.5 | induced apoptosis in a dose-dependent manner | 4 |  | 
FC1(F)N=C(c2ccc(Cl)cc2)SC1(F)c1ccc(Cl)cc1 (centres unmarked) [Id, 4,4,5-trifluoro-2,5-bis(4-chlorophenyl)-4,5-dihydrothiazole] | 3.5 | 1.75 | +++ | 2.5 | induced apoptosis in a dose-dependent manner | induced apoptosis in a dose-dependent manner | 7.5 | induced apoptosis in a dose-dependent manner | induced apoptosis in a dose-dependent manner | 4 | induced apoptosis in a dose-dependent manner | 5 | induced a loss on cell viability in a dose-dependent manner | 3.5 | induced apoptosis in a dose-dependent manner | 5 |  | 
CCOC(=O)c1ccc(C2=NC(F)(F)C(F)(c3ccc(C)cc3)S2)cc1 (centres unmarked) [If, ethyl 4-(4,4,5-trifluoro-5-(p-tolyl)-4,5-dihydrothiazol-2-yl)benzoate] | 8 | 17 | ++ |  |  |  |  |  |  |  |  |  |  |  |  |  |  | 
FC1(F)N=C(c2ncc(-c3ccccc3)s2)SC1(F)c1ccccc1 (centres unmarked) [Ib, 5-phenyl-2-(4,4,5-trifluoro-5-phenyl-4,5-dihydrothiazol-2-yl)thiazole] | 3 | 8 | +++ |  |  |  |  |  |  |  |  |  |  |  |  |  |  | 
FC1(F)N=C(c2ccccc2)SC1(F)c1ccccc1 (centres unmarked) [Ic, 4,4,5-trifluoro-2,5-diphenyl-4,5-dihydrothiazole] | 8 | 10 | ++ |  |  |  |  |  |  |  |  |  |  |  |  |  | induced apoptosis in a dose-dependent manner | less sensitive
